Experiments:
Type in all cases: cell-based
[1] = test system: Escherichia coli (ATCC 10536); experiment: Bacteriostatic activity (CMI), dilution technique in liquid medium, Exemple 9; settings: read after 24 H incubation at 35°C
Experimental: (§1) On a préparé des mélanges de solutions limpides de l'échantillon et du milieu de culture, contenant un adjuvant de dissolution, ajouté à raison de la quantité minimale nécessaire.
(§2) On a introduit les solutions obtenues telles quelles ou diluées dans des tubes stériles sous un volume inférieur ou égal à 2,5 ml, que l'on a ensuite ajusté sinécessaire à 2,5 ml à l'aide d'eau stérile. On a alors ajouté à chaque tube 2,5 ml de bouillon nutritif préparé à concentration double, ensemencé de façon à contenir environ 1000 germes par ml et ayant la composition suivante : peptone bactériologique 10 g extrait de viande de boeuf 5 g chlorure de sodium 5 g eau déminéralisèe Q S P 500 ml pH ajusté à 7,2 à l'aide de potasse. stérilisation par fractions de 50 ml 20 mn à 120°C
(§3) Les souches testées sont cultivées sur milieu gélosé "trypticase-soja" dont la compositon de formulation : peptone trypsique de caséine 15 g peptone papaïnique de soja 5 g chlorure de sodium 5 g gélose 15 g eau déminéralisée Q S P 1000 ml pH ajusté à l'aide de potasse à 7,3 stérilisation 20 mn à 120°C.
(§4) Après incubation 18 H à 35°C on ensemence à l'aide de ces cultures des tubes de milieu liquide "trypticase-soja" de formulation : peptone trypsique de caséine 17 g peptone papaïnique de soja 3 g chlorure de sodium 5 g phosphate dipotassique 2,5 g glucose 2,5 g eau déminéralisée Q S P 1000 ml pH ajusté à 7,3 à l'aide de potasse stérilisation 20 mn à 120°C.
(§5) Après 18 H d'incubation à 35°C, les cultures obtenues sont homogénéisées puis diluées.
(§6) Les quatres souches suivantes ont été testées : • Streptoccus fecalis (ATCC 9790) • Escherichia coli (ATCC 10536) • Proteus morganii (ATCC 53185) • Staphylococcus (ATCC 6538P)
(§7) On a effectué trois essais, en utilisant les gammes de concentrations suivantes de dipalmitate-6,6′-saccharose oxydé
(§8) On a effectué l'incubation des tubes à 35°C. Les lectures ont été faites après 18, 24 et 48 H en comparaison avec des tubes témoins de croissance de chaque microorganisme testé, en présence d'un agent tensio-actif : Tween 80 (marque de fabrique d'Atlas Chemical Industries, Inc) pour l'essai N° 1 et Triton X 100, (marque de fabrique de Rohm & Haas Co) pour les essais N°2 et N°3. Les résultats, donnés dans le Tableau I ci-dessous, relevés après 24 H d'incubation, indiquent la concentration (mg/ml) testée en dipalmitate-6,6′-saccharose oxydé à partir de laquelle on observe une absence de développement bactérien pour chacune des souches étudiées.

[2] = test system: Proteus morganii (ATCC 53185); experiment: as above; settings: read after 24 H incubation at 35°C
Experimental: as §1, §2, §3, §4, §5, §6, §7, §8

[3] = test system: Staphylococcus (ATCC 6538P); experiment: as above; settings: for concentration à partir de laquelle on observe une absence de développement bactérien: Triton X 100, read after 24 H incubation at 35°C
Experimental: as §1, §2, §3, §4, §5, §6, §7, §8

[4] = test system: Streptoccus fecalis (ATCC 9790); experiment: as above; settings: read after 24 H incubation at 35°C
Experimental: as §1, §2, §3, §4, §5, §6, §7, §8

[5] = test system: souches étudiées (Streptoccus fecalis, Escherichia coli, Proteus morganii, Staphylococcus); experiment: Bacteriostatic activity (CMI), overall statement for the strains of Exemple 9; settings: summary sentence in the text: good bacteriostatic activity, all strains of Exemple 9
Experimental: as §1, §2
as §3, with “120°C. […]” for “120°C.”

[6] = Essai N°1, Tween 80, tested 0,1 - 1 - 10 mg/ml
[7] = Essai N°2, Triton X 100, tested 0,1 - 1,6 mg/ml
[8] = Essai N°3, Triton X 100, tested 0,006 - 3,2 mg/ml

In the case of dipalmitate-6,6′-saccharose oxydé, the “concentration à partir de laquelle on observe une absence de développement bactérien” value (“concentration à partir de laquelle” for short) [1, 6] is reported as 1 mg/mL, the “concentration à partir de laquelle” value [1, 7] is reported as 0,8 mg/ml and the “concentration à partir de laquelle” value [1, 8] is reported as 1,6 mg/ml. The “concentration à partir de laquelle” value [2, 6] was 1 mg/mL, the “concentration à partir de laquelle” value [2, 7] was 0,2 mg/ml and the “concentration à partir de laquelle” value [2, 8] was 0,2 mg/ml. The “concentration à partir de laquelle” value ([3]; Essai N°2, tested 0,1 - 1,6 mg/ml) was < 0,1 mg/ml, the “concentration à partir de laquelle” value ([3]; Essai N°3, tested 0,006 - 3,2 mg/ml) was 0,01 mg/ml and the “concentration suffisante pour inhiber son développement” value ([3]; summary sentence in the text on Exemple 9) was ≤ 0,01 mg/ml. For the same substance, the “concentration à partir de laquelle” value [4, 6] was 1 mg/mL, the “concentration à partir de laquelle” value [4, 7] was 0,8 mg/ml and the “concentration à partir de laquelle” value [4, 8] was 0,8 mg/ml. The “concentration minimale inhibitrice (CMI)” value [5] was 1,6 mg/ml.

Reference: patent EP0349431B1, “Sucrose derivatives” (BEGHIN-SAY SOCIETE ANONYME, priority 1988, dated 1990)
